From patent publication US10259810B2, “N-sulfonylated pyrazolo[3,4-b]pyridin-6-carboxamides and method of use” (AbbVie S.à.r.l., priority 2015, dated 2019)
pEC50: −log10 of the molar value. Where two headings read alike, the source gives them in different places.

Experiments:
Type in all cases: cell-based
ΔF508-CFTR [1] = target: T1, ΔF508-CFTR (Homo sapiens, UniProt P13569, DEL508-508); assay: CFTR cell surface levels using HRP-tagged ΔF508-CFTR expressing CFBE cells, in the presence of a co-corrector; conditions: HRP-tagged ΔF508-CFTR CFBE cells, in the presence of 3 μM co-corrector; for pEC50: read-out: EC50
T1 construct: host or cells: CFBE41o-, doxycycline-inducible
Method in brief: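 Chemiluminescent read-out of surface HRP (15 min, dark) after PBS washes. Activity is normalized as 100×(sample−DMSO)/(3 μM co-corrector alone−DMSO).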

CFTR ΔF508 = target: T2, CFTR ΔF508 (Homo sapiens, UniProt P13569, DEL508-508); assay: Chronic TECC assay, primary bronchial epithelial cells of CF patients homozygous for CFTR ΔF508 (corrector, co-corrector and potentiator); conditions: chronic TECC; for % Activity at 3 μM (AUC**): test compound at 3 μM
T2 construct: bronchial epithelial cells isolated from CF patients homozygous for the CFTR ΔF508 mutation; McGill University; Asterand; University of North Carolina hAEC-CF; host or cells: primary human bronchial epithelial cells from CF patients homozygous for ΔF508, differentiated at air-liquid interface
Method in brief: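 Primary bronchial epithelial cells from ΔF508-homozygous CF patients on collagen IV-coated Transwells were chronically treated with test compound plus corrector and potentiator, which were re-added before recording. Ieq was derived from PD and Rt in NaCl-Ringer, pH 7.4, at 37° C, with apical amiloride and bilateral forskolin, recorded every 2 min over 20 min. Ieq increase was normalized to controls, and EC50 was taken from per-well concentrations.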

ΔF508-CFTR [2] = target: T1, ΔF508-CFTR; assay: CFTR cell surface levels using HRP-tagged ΔF508-CFTR expressing CFBE cells, intrinsic corrector capacity; set-up: % Activation: concentration or dose not given beside the values; conditions: HRP-tagged ΔF508-CFTR expressing CFBE41o- cells, compound alone (intrinsic corrector capacity), 20 hours at 33° C.; for pEC50: read-out: EC50
Method in brief: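 Read-out: chemiluminescent HRP activity of ECL4-HRP-tagged ΔF508-CFTR at the cell surface, 15 min substrate in dark. Normalized as 100×(sample−DMSO)/(positive control−DMSO).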

[3] = AUC = full area under the curve upon forskolin stimulation, read-out: EC50 (nM) (AUC**)
[4] = test compound at 1 μM, AUC = full area under the curve upon forskolin stimulation
[5] = AUC = full area under the curve upon forskolin stimulation

T1 sequence (P13569 with tags, fused parts or gaps DEL508-508): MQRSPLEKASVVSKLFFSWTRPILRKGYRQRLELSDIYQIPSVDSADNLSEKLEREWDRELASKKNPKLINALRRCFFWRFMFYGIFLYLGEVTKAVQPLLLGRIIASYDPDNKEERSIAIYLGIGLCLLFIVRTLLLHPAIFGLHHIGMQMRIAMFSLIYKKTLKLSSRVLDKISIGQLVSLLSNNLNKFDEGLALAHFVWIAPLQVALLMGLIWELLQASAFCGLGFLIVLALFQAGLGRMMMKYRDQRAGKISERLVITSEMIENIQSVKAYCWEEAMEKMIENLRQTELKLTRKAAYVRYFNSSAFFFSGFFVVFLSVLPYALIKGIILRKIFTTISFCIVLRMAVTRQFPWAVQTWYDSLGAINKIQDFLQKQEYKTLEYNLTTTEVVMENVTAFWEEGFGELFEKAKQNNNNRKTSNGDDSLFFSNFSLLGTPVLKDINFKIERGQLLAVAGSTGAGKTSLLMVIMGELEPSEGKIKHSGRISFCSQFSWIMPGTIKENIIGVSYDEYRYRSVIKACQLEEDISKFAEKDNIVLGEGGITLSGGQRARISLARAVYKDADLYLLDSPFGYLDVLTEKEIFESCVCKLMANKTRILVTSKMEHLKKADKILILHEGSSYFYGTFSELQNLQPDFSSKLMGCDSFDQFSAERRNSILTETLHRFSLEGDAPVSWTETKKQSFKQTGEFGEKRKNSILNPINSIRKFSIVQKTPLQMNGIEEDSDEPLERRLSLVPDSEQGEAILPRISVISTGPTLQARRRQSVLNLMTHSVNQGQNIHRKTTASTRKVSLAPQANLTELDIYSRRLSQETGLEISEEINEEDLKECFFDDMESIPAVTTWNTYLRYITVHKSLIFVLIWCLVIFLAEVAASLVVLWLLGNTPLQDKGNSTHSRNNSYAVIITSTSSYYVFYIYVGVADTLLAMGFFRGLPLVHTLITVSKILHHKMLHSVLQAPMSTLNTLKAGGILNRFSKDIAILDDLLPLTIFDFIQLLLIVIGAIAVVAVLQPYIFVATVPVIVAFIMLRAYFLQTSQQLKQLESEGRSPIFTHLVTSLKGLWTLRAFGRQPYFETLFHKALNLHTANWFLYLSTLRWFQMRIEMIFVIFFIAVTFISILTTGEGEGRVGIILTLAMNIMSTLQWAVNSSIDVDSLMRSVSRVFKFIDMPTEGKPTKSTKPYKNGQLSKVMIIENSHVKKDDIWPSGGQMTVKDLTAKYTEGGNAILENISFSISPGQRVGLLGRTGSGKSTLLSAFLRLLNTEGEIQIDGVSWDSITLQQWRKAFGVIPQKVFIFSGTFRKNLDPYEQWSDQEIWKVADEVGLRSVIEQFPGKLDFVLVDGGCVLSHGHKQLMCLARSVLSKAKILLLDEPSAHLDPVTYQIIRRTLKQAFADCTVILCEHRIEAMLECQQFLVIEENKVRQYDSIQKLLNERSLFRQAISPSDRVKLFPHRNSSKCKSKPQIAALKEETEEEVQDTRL
T2 sequence (P13569 with tags, fused parts or gaps DEL508-508): as above

SMILES | % Activation (ΔF508-CFTR [1]) [%] | pEC50 (ΔF508-CFTR [1]) | EC50 (CFTR ΔF508; [3]) [nM] | % Activity at 1 μM (AUC**) (CFTR ΔF508; [4]) [%] | % Activation (ΔF508-CFTR [2]) [%] | pEC50 (ΔF508-CFTR [2]) | % Activity at 3 μM (AUC**) (CFTR ΔF508; [5]) [%] | EC50 (CFTR ΔF508; Ieq = calculations based on the maximum current, read-out: EC50 (nM) (Ieq*)) | % Activity at 1 μM (Ieq*) (CFTR ΔF508; test compound at 1 μM, Ieq = calculations based on the maximum current) [%]
CN(C)S(=O)(=O)NC(=O)c1cc(N2CCC(N3CCCCC3)CC2)c2c(C3CCC3)nn(-c3ccc(F)cc3)c2n1 [Compound 472, 4-([1,4'-bipiperidin]-1'-yl)-3-cyclobutyl-N-(dimethylsulfamoyl)-1-(4-fluorophenyl)-1H-pyrazolo[3,4-b]pyridine-6-carboxamide] | 399.79 | 6.60 | 34.2 | 181.0865 | 210.57 | 6.17 | – | – | –
COC1CCN(c2cc(C(=O)NS(C)(=O)=O)nc3c2c(C(C)C)nn3-c2ccnc(N3CCCC3)c2)CC1 [Compound 188, N-(methanesulfonyl)-4-(4-methoxypiperidin-1-yl)-3-(propan-2-yl)-1-[2-(pyrrolidin-1-yl)pyridin-4-yl]-1H-pyrazolo[3,4-b]pyridine-6-carboxamide] | 405.37 | 6.80 | – | 257.3 | 214.93 | 6.56 | – | – | –
CN(C)S(=O)(=O)NC(=O)c1cc(N2CCC(N3CCC(C#N)C3)CC2)c2c(C3CCC3)nn(-c3ccc(F)cc3)c2n1 (centres unmarked) [Compound 561, 4-[4-(3-cyanopyrrolidin-1-yl)piperidin-1-yl]-3-cyclobutyl-N-(dimethylsulfamoyl)-1-(4-fluorophenyl)-1H-pyrazolo[3,4-b]pyridine-6-carboxamide] | 509.4 | 7.37 | – | 620 | 311.6 | 6.97 | – | – | –
CC(C)N1CCC(c2cc(C(=O)NS(C)(=O)=O)nc3c2c(C2CCC2)nn3-c2ccc(F)cc2)CC1 [Compound 611, 3-cyclobutyl-1-(4-fluorophenyl)-N-(methanesulfonyl)-4-[1-(propan-2-yl)piperidin-4-yl]-1H-pyrazolo[3,4-b]pyridine-6-carboxamide] | 236.7 | 5.58 | – | – | 77.39 | 5.48 | 176.7495 | – | –
CC(C)Oc1cc(-n2nc(C3CCC3)c3c(N4CCC(N5CCOCC5)CC4)cc(C(=O)NS(=O)(=O)N(C)C)nc32)ccn1 [Compound 529, 3-cyclobutyl-N-(dimethylsulfamoyl)-4-[4-(morpholin-4-yl)piperidin-1-yl]-1-{2-[(propan-2-yl)oxy]pyridin-4-yl}-1H-pyrazolo[3,4-b]pyridine-6-carboxamide] | 444.13 | 7.65 | 19.1 | 520 | 278.55 | 7.22 | – | – | –
CS(=O)(=O)NC(=O)c1cc(N2CCC(N3CCOCC3)CC2)c2c(C3CCC3)nn(C3CCCCC3)c2n1 [Compound 418, 3-cyclobutyl-1-cyclohexyl-N-(methanesulfonyl)-4-[4-(morpholin-4-yl)piperidin-1-yl]-1H-pyrazolo[3,4-b]pyridine-6-carboxamide] | 512.9 | 6.66 | 19.2 | 196.6667 | 321.3 | 6.49 | – | – | –
CN(C)S(=O)(=O)NC(=O)c1cc(N2CCC(CN3CCOCC3)CC2)c2c(C3CCC3)nn(C3CCCCC3)c2n1 [Compound 424, 3-cyclobutyl-1-cyclohexyl-N-(dimethylsulfamoyl)-4-{4-[(morpholin-4-yl)methyl]piperidin-1-yl}-1H-pyrazolo[3,4-b]pyridine-6-carboxamide] | 453.88 | 7.04 | – | – | 249.25 | 6.61 | 462.0976 | – | –
CCOC(=O)N1CCN(c2cc(C(=O)NS(C)(=O)=O)nc3c2c(C(C)C)nn3-c2ccc(F)cc2)CC1 [Compound 337, ethyl 4-[1-(4-fluorophenyl)-6-[(methanesulfonyl)carbamoyl]-3-(propan-2-yl)-1H-pyrazolo[3,4-b]pyridin-4-yl]piperazine-1-carboxylate] | 532.3 | 7.51 | – | 299.50 | 404.9 | 6.87 | – | – | –
CC(=O)N1CCN(C2CCN(c3cc(C(=O)NS(=O)(=O)N(C)C)nc4c3c(C3CCC3)nn4-c3ccc(F)cc3)CC2)CC1 [Compound 493, 4-[4-(4-acetylpiperazin-1-yl)piperidin-1-yl]-3-cyclobutyl-N-(dimethylsulfamoyl)-1-(4-fluorophenyl)-1H-pyrazolo[3,4-b]pyridine-6-carboxamide] | 480.78 | 7.02 | 371 | 271.4141 | 275.2 | 6.76 | – | – | –
COC1CN(C2CCN(c3cc(C(=O)NS(=O)(=O)N(C)C)nc4c3c(C3CCC3)nn4-c3ccc(F)cc3)CC2)C1 [Compound 570, 3-cyclobutyl-N-(dimethylsulfamoyl)-1-(4-fluorophenyl)-4-[4-(3-methoxyazetidin-1-yl)piperidin-1-yl]-1H-pyrazolo[3,4-b]pyridine-6-carboxamide] | 412.9 | 6.68 | – | – | 235.8 | 6.30 | 377.5594 | – | –
COCC1CCN(c2cc(C(=O)NS(=O)(=O)N3CCOCC3)nc3c2c(C2CCC2)nn3-c2ccccc2)CC1 [Compound 396, 3-cyclobutyl-4-[4-(methoxymethyl)piperidin-1-yl]-N-(morpholine-4-sulfonyl)-1-phenyl-1H-pyrazolo[3,4-b]pyridine-6-carboxamide] | 385.8 | 7.26 | – | – | 222.9 | 6.92 | 259.4666 | – | –
COCC1CN(c2cc(C(=O)NS(C)(=O)=O)nc3c2c(C2CCC2)nn3-c2ccccc2)C1 [Compound 193, 3-cyclobutyl-N-(methanesulfonyl)-4-[3-(methoxymethyl)azetidin-1-yl]-1-phenyl-1H-pyrazolo[3,4-b]pyridine-6-carboxamide] | 341.37 | 6.23 | – | 317.57 | 175.23 | 5.97 | – | – | –
CC(C)c1nn(-c2cccc(N(C)C)c2)c2nc(C(=O)NS(C)(=O)=O)cc(-c3cnc(N4CCC(C#N)CC4)nc3)c12 [Compound 95, 4-[2-(4-cyanopiperidin-1-yl)pyrimidin-5-yl]-1-[3-(dimethylamino)phenyl]-N-(methanesulfonyl)-3-(propan-2-yl)-1H-pyrazolo[3,4-b]pyridine-6-carboxamide] | 611.7 | 6.19 | – | – | 355.6 | 6.08 | – | 10 | 180
CN(C)S(=O)(=O)NC(=O)c1cc(N2CCC(N3CCN(C4CC4)CC3)CC2)c2c(C3CCC3)nn(-c3ccc(F)cc3)c2n1 [Compound 583, 3-cyclobutyl-4-[4-(4-cyclopropylpiperazin-1-yl)piperidin-1-yl]-N-(dimethylsulfamoyl)-1-(4-fluorophenyl)-1H-pyrazolo[3,4-b]pyridine-6-carboxamide] | 480.15 | 7.32 | 51.3 | 613.3333 | 269.7 | 6.75 | – | – | –
COC1CCN(C2CCN(c3cc(C(=O)NS(=O)(=O)N4CC(F)C4)nc4c3c(C3CCC3)nn4-c3ccc(F)cc3)CC2)CC1 [Compound 646, 3-cyclobutyl-N-(3-fluoroazetidine-1-sulfonyl)-1-(4-fluorophenyl)-4-(4-methoxy[1,4'-bipiperidin]-1'-yl)-1H-pyrazolo[3,4-b]pyridine-6-carboxamide] | 447.9 | 6.59 | 23.5 | – | 236.13 | 6.40 | 276.7167 | – | –
CS(=O)(=O)NC(=O)c1cc(C2CCN(C3CCOCC3)CC2)c2c(C3CCC3)nn(-c3ccc(F)cc3)c2n1 [Compound 599, 3-cyclobutyl-1-(4-fluorophenyl)-N-(methanesulfonyl)-4-[1-(oxan-4-yl)piperidin-4-yl]-1H-pyrazolo[3,4-b]pyridine-6-carboxamide] | 285.2 | 6.57 | – | 116.6667 | 88.94 | 6.48 | – | – | –
COCCS(=O)(=O)NC(=O)c1cc(-c2ccc(CN3CCOCC3)cc2)c2c(OC(C)C)nn(C3CCCCC3)c2n1 [Compound 405, 1-cyclohexyl-N-(2-methoxyethanesulfonyl)-4-{4-[(morpholin-4-yl)methyl]phenyl}-3-[(propan-2-yl)oxy]-1H-pyrazolo[3,4-b]pyridine-6-carboxamide] | 326.9 | 6.99 | – | 323.3333 | 160.8 | 6.72 | – | – | –
